Source: US20040248848A1, “Use of specific dose of fondaparinux sodium for the treatment of acs” (priority 2004, published 2004)

Legend:
[1] = system: patients with unstable angina/non Q-wave MI; assay: Dose ranging study: safety analysis, deaths; format: in vivo, human; details: for Patients with SAE from First injection Leading to death after day 30 / Patients with SAE from First injection Leading to death between first injection and day 30 / Total deaths reported: all treated patients; for Total deaths reported: first active injection onwards
Procedure: (§1) A double blind, randomized, controlled dose ranging study was performed testing in parallel four fondaparinux sodium daily dose levels (2.5, 4.0, 8.0 and 12.0 mg) and a dose regimen of enoxaparin (1 mg/Kg bid=twice daily). Efficacy (composite parameter of death, AMI, recurrent ischemia) and safety of the respective doses of fondaparinux sodium were assessed in patients with unstable angina/non Q-wave MI. Further, safety and efficacy of the four different dose levels of fondaparinux sodium and enoxaparin 1 mg/Kg bid were compared.
Other safety endpoints include deaths and all adverse events (latter not reported here).
(§2) The safety analysis was performed on the ‘all treated patients’ (ATP) population.

[2] = system: patients with unstable angina/non Q-wave MI; assay: Dose ranging study: safety analysis, adjudicated bleeding events; format: in vivo; details: for Any bleeding event n (%) / Major bleeding event n (%) / Minor bleeding event n (%): first active injection to Day 9, all treated patients
Procedure: as §1
The primary safety endpoint was the incidence of major bleeding from first active drug administration up to and including Day 9 as adjudicated by a blinded Central Adjudication Committee (CAC). The incidence of any major or minor bleeding was considered as a secondary safety endpoint.
as §2

[3] = system: patients with unstable angina/non Q-wave MI; assay: Dose ranging study: secondary efficacy analysis (clinical endpoints); format: in vivo, human; details: for AMI / Death (not related to bleeding) / Death or AMI / Death or AMI or recurrent ischemia (Symptomatic) / Recurrent Ischemia (Symptomatic): first active injection to Day 9, per protocol including insufficient Mortara data
Procedure: as §1
(§3) The primary analysis for efficacy parameters was performed on the per protocol (PP) population. The choice of the patients to be excluded from PP population for efficacy analyses was defined before unblinding the trial.

[4] = system: patients with unstable angina/non Q-wave MI; assay: Dose ranging study in unstable angina: primary efficacy evaluation (composite of death, AMI, recurrent ischemia); format: in vivo, human; details: for AMI n (%) / Composite endpoint n (%) / Death (not related to bleeding) n (%) / Recurrent ischemia n (%) (Mortara data) / Symptomatic recurrent ischemia n (%): first active injection to Day 9, per protocol excluding insufficient Mortara data
Procedure: as §1
The primary efficacy endpoint consisted of the composite of the following ischeric events starting from first active drug administration up to and including Day 9 (with Day 1 being the day of first active drug administration):
Death from any cause except for death related to bleeding
Acute myocardial infarction (AMI), according to the definition in the protocol
Symptomatic recurrent ischemia (excluding episodes of ischemia during or at any time after CABG (Coronary Artery Bypass Graft) or PTCA (Percutaneous Transluminal Coronary Angioplasty)) or any ischemia on the 48-h continuous 12-lead ECG monitoring (Mortara).
In the event a patient experienced one of these events, the binary composite outcome was regarded as a treatment failure. In contrast, if none of the above events applied, the composite ischemic outcome was considered as a treatment success.
as §3

CO[C@H]1O[C@H](COS(=O)(=O)O)[C@@H](O[C@@H]2O[C@@H](C(=O)O)[C@@H](O[C@H]3O[C@H](COS(=O)(=O)O)[C@@H](O[C@@H]4O[C@H](C(=O)O)[C@@H](O[C@H]5O[C@H](COS(=O)(=O)O)[C@@H](O)[C@H](O)[C@H]5NS(=O)(=O)O)[C@H](O)[C@H]4O)[C@H](OS(=O)(=O)O)[C@H]3NS(=O)(=O)O)[C@H](O)[C@H]2OS(=O)(=O)O)[C@H](O)[C@H]1NS(=O)(=O)O [Fondaparinux sodium, methyl O-(2-deoxy-2-sulfoamino-6-O-sulfo-α-D-glucopyranosyl)-(1→4)-O-(β-D-glucopyranosyluronic acid)-(1→4)-O-(2-deoxy-2-sulfoamino-3,6-di-O-sulfo-α-D-glucopyranosyl)-(1→4)-O-(2-O-sulfo-α-L-idopyranosyluronic acid)-(1→4)-2-deoxy-2-sulfoamino-6-O-sulfo-α-D-glucopyranoside]
Patients with SAE from First injection Leading to death after day 30 ([1]; 2.5 mg daily (N = 229)): 1 (0.4%) Number (%)
Patients with SAE from First injection Leading to death between first injection and day 30 ([1]; 2.5 mg daily (N = 229)): 3 (1.3%) Number (%)
Total deaths reported ([1]; 2.5 mg daily (N = 229)): 4 (1.7%) Number (%)
Patients with SAE from First injection Leading to death after day 30 ([1]; 4 mg daily (N = 222)): 3 (1.4%) Number (%)
Patients with SAE from First injection Leading to death between first injection and day 30 ([1]; 4 mg daily (N = 222)): 7 (3.2%) Number (%)
Total deaths reported ([1]; 4 mg daily (N = 222)): 10 (4.5%) Number (%)
Patients with SAE from First injection Leading to death after day 30 ([1]; 8 mg daily (N = 223)): 2 (0.9%) Number (%)
Patients with SAE from First injection Leading to death between first injection and day 30 ([1]; 8 mg daily (N = 223)): 4 (1.8%) Number (%)
Total deaths reported ([1]; 8 mg daily (N = 223)): 6 (2.7%) Number (%)
Patients with SAE from First injection Leading to death after day 30 ([1]; 12 mg daily (N = 238)): 1 (0.4%) Number (%)
Patients with SAE from First injection Leading to death between first injection and day 30 ([1]; 12 mg daily (N = 238)): 6 (2.5%) Number (%)
Total deaths reported ([1]; 12 mg daily (N = 238)): 7 (2.9%) Number (%)
differences in the percentage of deaths between treatment groups ([1]; all dose groups vs enoxaparin): No relevant differences
Any bleeding event n (%) ([2]; 2.5 mg daily (N = 229)): 9 (3.9%) n (%)
Major bleeding event n (%) ([2]; 2.5 mg daily (N = 229)): 0 (0.0%) n (%)
Minor bleeding event n (%) ([2]; 2.5 mg daily (N = 229)): 9 (3.9%) n (%)
major bleedings observed ([2]; 2.5 mg group): No major bleedings were observed
Any bleeding event n (%) ([2]; 4 mg daily (N = 222)): 12 (5.4%) n (%)
Major bleeding event n (%) ([2]; 4 mg daily (N = 222)): 3 (1.4%) n (%)
Minor bleeding event n (%) ([2]; 4 mg daily (N = 222)): 9 (4.1%) n (%)
Any bleeding event n (%) ([2]; 8 mg daily (N = 223)): 12 (5.4%) n (%)
Major bleeding event n (%) ([2]; 8 mg daily (N = 223)): 4 (1.8%) n (%)
Minor bleeding event n (%) ([2]; 8 mg daily (N = 223)): 9 (4.0%) n (%)
Any bleeding event n (%) ([2]; 12 mg daily (N = 238)): 11 (4.6%) n (%)
Major bleeding event n (%) ([2]; 12 mg daily (N = 238)): 1 (0.4%) n (%)
Minor bleeding event n (%) ([2]; 12 mg daily (N = 238)): 10 (4.2%) n (%)
differences between fondaparinux sodium groups and the enoxaparin group for safety parameters ([2]; all dose groups): No significant differences
differences between treatment groups for major, minor or any bleeding ([2]; all dose groups vs enoxaparin): No relevant differences
AMI ([3]; 2.5 mg daily (N = 210)): 1 (0.5%) n (%)
Death (not related to bleeding) ([3]; 2.5 mg daily (N = 210)): 2 (1.0%) n (%)
Death or AMI ([3]; 2.5 mg daily (N = 210)): 3 (1.4%) n (%)
Death or AMI or recurrent ischemia (Symptomatic) ([3]; 2.5 mg daily (N = 210)): 27 (12.9%) n (%)
Recurrent Ischemia (Symptomatic) ([3]; 2.5 mg daily (N = 210)): 26 (12.4%) n (%)
death or AMI compared with the other fondaparinux sodium groups ([3]; 2.5 mg group): fewer patients tended to experience death or AMI
AMI ([3]; 4 mg daily (N = 185)): 3 (1.6%) n (%)
Death (not related to bleeding) ([3]; 4 mg daily (N = 185)): 5 (2.7%) n (%)
Death or AMI ([3]; 4 mg daily (N = 185)): 8 (4.3%) n (%)
Death or AMI or recurrent ischemia (Symptomatic) ([3]; 4 mg daily (N = 185)): 39 (21.1%) n (%)
Recurrent Ischemia (Symptomatic) ([3]; 4 mg daily (N = 185)): 33 (17.8%) n (%)
AMI ([3]; 8 mg daily (N = 183)): 5 (2.7%) n (%)
Death (not related to bleeding) ([3]; 8 mg daily (N = 183)): 1 (0.5%) n (%)
Death or AMI ([3]; 8 mg daily (N = 183)): 6 (3.3%) n (%)
Death or AMI or recurrent ischemia (Symptomatic) ([3]; 8 mg daily (N = 183)): 33 (18.0%) n (%)
Recurrent Ischemia (Symptomatic) ([3]; 8 mg daily (N = 183)): 29 (15.8%) n (%)
AMI ([3]; 12 mg daily (N = 199)): 4 (2.0%) n (%)
Death (not related to bleeding) ([3]; 12 mg daily (N = 199)): 1 (0.5%) n (%)
Death or AMI ([3]; 12 mg daily (N = 199)): 5 (2.5%) n (%)
Death or AMI or recurrent ischemia (Symptomatic) ([3]; 12 mg daily (N = 199)): 30 (15.1%) n (%)
Recurrent Ischemia (Symptomatic) ([3]; 12 mg daily (N = 199)): 28 (14.1%) n (%)
AMI n (%) ([4]; 2.5 mg daily (N = 203)): 1 (0.5%) n (%)
Composite endpoint n (%) ([4]; 2.5 mg daily (N = 203)): 61 (30.0%) n (%)
Death (not related to bleeding) n (%) ([4]; 2.5 mg daily (N = 203)): 2 (1.0%) n (%)
Recurrent ischemia n (%) (Mortara data) ([4]; 2.5 mg daily (N = 203)): 47 (23.2%) n (%)
Symptomatic recurrent ischemia n (%) ([4]; 2.5 mg daily (N = 203)): 26 (12.8%) n (%)
AMI n (%) ([4]; 4 mg daily (N = 177)): 3 (1.7%) n (%)
Composite endpoint n (%) ([4]; 4 mg daily (N = 177)): 77 (43.5%) n (%)
Death (not related to bleeding) n (%) ([4]; 4 mg daily (N = 177)): 5 (2.8%) n (%)
Recurrent ischemia n (%) (Mortara data) ([4]; 4 mg daily (N = 177)): 63 (35.6%) n (%)
Symptomatic recurrent ischemia n (%) ([4]; 4 mg daily (N = 177)): 33 (18.6%) n (%)
AMI n (%) ([4]; 8 mg daily (N = 173)): 5 (2.9%) n (%)
Composite endpoint n (%) ([4]; 8 mg daily (N = 173)): 71 (41.0%) n (%)
Death (not related to bleeding) n (%) ([4]; 8 mg daily (N = 173)): 1 (0.6%) n (%)
Recurrent ischemia n (%) (Mortara data) ([4]; 8 mg daily (N = 173)): 55 (31.8%) n (%)
Symptomatic recurrent ischemia n (%) ([4]; 8 mg daily (N = 173)): 29 (16.8%) n (%)
AMI n (%) ([4]; 12 mg daily (N = 187)): 4 (2.1%) n (%)
Composite endpoint n (%) ([4]; 12 mg daily (N = 187)): 65 (34.8 %) n (%)
Death (not related to bleeding) n (%) ([4]; 12 mg daily (N = 187)): 1 (0.5%) n (%)
Recurrent ischemia n (%) (Mortara data) ([4]; 12 mg daily (N = 187)): 56 (29.9%) n (%)
Symptomatic recurrent ischemia n (%) ([4]; 12 mg daily (N = 187)): 28 (15.0%) n (%)
AMI n (%) ([4]; All doses pooled (N = 740)): 13 (1.8%) n (%)
Composite endpoint n (%) ([4]; All doses pooled (N = 740)): 274 (37.0%) n (%)
Death (not related to bleeding) n (%) ([4]; All doses pooled (N = 740)): 9 (1.2%) n (%)
Recurrent ischemia n (%) (Mortara data) ([4]; All doses pooled (N = 740)): 221 (29.9%) n (%)
Symptomatic recurrent ischemia n (%) ([4]; All doses pooled (N = 740)): 116 (15.7%) n (%)
efficacy compared with enoxaparin 1 mg/Kg bid ([4]; all fondaparinux sodium doses): at least as effective as enoxaparin
incidence of the composite endpoint ([4]; all fondaparinux sodium groups pooled): 37.0%
dose-response for the primary endpoint ([4]; four fondaparinux sodium groups (2.5, 4.0, 8.0, 12.0 mg)): No dose-response
